Here are results for eight compounds from US7923448B2, “Purine receptor inhibition as a therapeutic strategy in spinal cord and brain” (priority 2003, dated 2011).

In one assay the test system is non-injured spinal cord. As to the kind of experiment: Injection of ATP or ATP analogs into the non-injured spinal cord, TUNEL staining. In kind it is in vivo, rat. The note with it: 10 mM, 2 μl injected just lateral to the dorsal horn, 24 hrs later. As for the experimental part:
(§1) Adult female Spague-Dawley rats (220-250 g) were anesthetized with pentobarbital (50 mg/kg i.p.). When unresponsive, a double level laminectomy was performed at the T11 and T12 vertebrae. […] The tip of the rod was reduced to 1 mm to avoid direct traumatic injury of the dorsal venous complex. ATP and agonists (10 mM, 2 μl) were stereotaxically injected into T12 just lateral to the dorsal horn. All agents were purchased from Sigma.
The rats were anesthetized with ketamine (60 mg/kg) and xylazine (10 mg/kg). After 12 hours post-fixation, the spinal cord is cryoprotected in 30% sucrose and cut in serial 20 μm para-saggital sections. Myelin was visualized with Luxol fast blue (Basso et al., “A Sensitive and Reliable Locomotor Rating Scale for Open Field Testing in Rats,” J Neurotrauma 12:1-21 (1995) and Nedergaard et al., “Characterization of Cortical Depolarization Evoked in Focal Cerebral Ischemia,” J Cereb Blood Flow Metab 13:568-574 (1993), which are hereby incorporated by reference in their entirety)). Immunohistochemistry and TUNEL staining were performed as described in (Lin et al., “Gap-Junction-Mediated Propagation and Amplification of Cell Injury,” Nat Neurosci 1:494-500 (1998); Lin et al., “Connexin Mediates Gap Junction-Independent Resistance to Cellular Injury,” J Neurosci 23:430-441 (2003); and Takano et al., “Glutamate Release Promotes Growth of Malignant Glioma,” Nat Med 7:1010-1015 (2001), which are hereby incorporated by reference in their entirety)). Immunofluorescence was visualized using confocal microscopy (BioRad MRC1024) and images analyzed by Metamorph software (Universal Imaging Corp.).
It was then determined whether increased extracellular ATP in itself, in the non-injured spinal cord, was sufficient for induction of cell death. ATP or ATP analogs, all in a concentration of 10 mM (2 μl), were injected into the spinal cord just lateral to the dorsal horn. A large number of TUNEL-positive cells were present 24 hrs later in both gray and white matter (FIG. 2F). […] These observations indicate that raising extracellular ATP concentration is sufficient for induction of cell death in the non-injured spinal cord. In this regard, P2X7 receptors are expressed by most immune cells and their activation leads to multiple downstream events, including cell permeabilization and apoptosis (Chow et al., “Purines and Their Roles in Apoptosis,” Neuropharmacology 36:1149-1156 (1997) and Di Virgilio et al., “Cytolytic P2X Purinoceptors,” Cell Death Differ 5:191-199 (1998), which are hereby incorporated by reference in their entirety)).

The target in assay [1] is T1, P2X7 receptors (Rattus norvegicus, UniProt Q64663).
T1 sequence (Q64663 1-595): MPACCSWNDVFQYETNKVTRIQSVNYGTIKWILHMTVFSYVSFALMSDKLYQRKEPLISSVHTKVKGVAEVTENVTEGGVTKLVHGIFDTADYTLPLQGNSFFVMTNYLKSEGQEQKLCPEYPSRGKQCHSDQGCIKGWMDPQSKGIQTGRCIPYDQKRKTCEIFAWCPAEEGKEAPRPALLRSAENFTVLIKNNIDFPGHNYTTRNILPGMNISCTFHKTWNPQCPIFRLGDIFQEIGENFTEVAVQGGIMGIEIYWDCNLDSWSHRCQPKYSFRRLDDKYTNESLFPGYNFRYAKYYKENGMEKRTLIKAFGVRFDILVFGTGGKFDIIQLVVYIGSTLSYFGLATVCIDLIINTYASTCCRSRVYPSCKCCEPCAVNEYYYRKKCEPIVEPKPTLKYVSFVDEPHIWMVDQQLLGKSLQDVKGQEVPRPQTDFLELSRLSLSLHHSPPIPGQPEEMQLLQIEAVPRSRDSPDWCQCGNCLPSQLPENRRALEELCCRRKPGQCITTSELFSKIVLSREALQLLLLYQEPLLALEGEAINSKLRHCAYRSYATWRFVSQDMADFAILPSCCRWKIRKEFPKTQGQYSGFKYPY
Kind of assay: Two-photon calcium imaging (fluo-4) of neurons in spinal cord slices. The note with it: 100 μM; for cytosolic calcium concentration (fluo-4 emission) during bath application: 20 min agonist exposure, spinal cord slices.

The target of assay [2] is T1, P2X7 receptors. Kind of assay: Current clamp recording of spiking in spinal cord neurons (slices). The note with it: for spiking (action potential firing) of spinal cord neurons: 100 μM, current clamp; for effect on BzATP-induced increase in spike rate (FIG. 4 legend): BzATP 100 μM, OxATP 100 μM, NBQX 10 μM and CPP 5 μM applied combined.
Assay [3] relates to spinal cord injury. As to the kind of experiment: Weight-drop spinal cord injury, BBB open field locomotor rating scale. In kind it is in vivo, rat. The note with it: 1 mM, 2 μl local pretreatment; n=14. Here is the method:
as §1
The animals were evaluated daily for 2 weeks after injury and later on a biweekly basis.
It was next determined whether OxATP protected against cell death in the area of high ATP release following spinal cord injury. OxATP (1 mM, 2 μl) was injected locally into the peri-traumatic zone immediately prior to impact. […] The BBB open field locomotor rating scale was used to evaluate recovery of rats receiving OxATP versus vehicle treated control.

Assay [4] concerns spinal cord injury. Kind of assay: Weight-drop spinal cord injury, TUNEL-positive cells surrounding the lesion. In kind it is in vivo, rat. Conditions: 1 mM, 2 μl injected locally into the peri-traumatic zone immediately prior to impact; 24 hrs. Here is the method: as §1
The rats were anesthetized with ketamine (60 mg/kg) and xylazine (10 mg/kg). After 12 hours post-fixation, the spinal cord is cryoprotected in 30% sucrose and cut in serial 20 μm para-saggital sections. Myelin was visualized with Luxol fast blue (Basso et al., “A Sensitive and Reliable Locomotor Rating Scale for Open Field Testing in Rats,” J Neurotrauma 12:1-21 (1995) and Nedergaard et al., “Characterization of Cortical Depolarization Evoked in Focal Cerebral Ischemia,” J Cereb Blood Flow Metab 13:568-574 (1993), which are hereby incorporated by reference in their entirety)). […] Immunofluorescence was visualized using confocal microscopy (BioRad MRC1024) and images analyzed by Metamorph software (Universal Imaging Corp.).
It was next determined whether OxATP protected against cell death in the area of high ATP release following spinal cord injury. […]

Entries after “also recorded” stand apart in the source; their conditions may differ.

For the compound `CSc1nc(N)c2ncn([C@@H]3O[C@H](COP(=O)(O)OP(=O)(O)OP(=O)(O)O)[C@@H](O)[C@H]3O)c2n1` [2MeSATP], the “apoptosis (TUNEL-positive cells) after injection into spinal cord” value (shortened to “apoptosis (TUNEL-positive cells)”) with non-injured spinal cord was “not associated with significant injury”.
On to `Nc1ncnc2c1ncn2[C@@H]1O[C@H](COP(=O)(O)OP(=O)(O)OP(=O)(O)O)[C@@H](O)[C@H]1O` [ATP], for which the “cytosolic calcium concentration (fluo-4 emission) during bath application” value on P2X7 receptors [1] is “sustained increase in cytosolic calcium concentration”. Moreover, the “spiking (action potential firing) of spinal cord neurons” value at P2X7 receptors [2] is recorded as “increase spiking rate; also recorded: induced high frequency spiking”. In addition, in the assay on non-injured spinal cord, the “apoptosis (TUNEL-positive cells)” value was “induced a significant extent of apoptosis”.
As for `Nc1ncnc2c1ncn2[C@@H]1O[C@H](COP(=O)(O)OP(=O)(O)OP(O)(O)=S)[C@@H](O)[C@H]1O` [ATPγS], the “apoptosis (TUNEL-positive cells)” value with non-injured spinal cord is “highest extent of apoptosis”.
Regarding `O=C(O)C1CN(CCCP(=O)(O)O)CCN1` (stereo not shown) [CPP], the “effect on BzATP-induced increase in spike rate (FIG. 4 legend)” value (“effect on BzATP-induced increase” below) at P2X7 receptors [2] is given as “no significant effect”.
Regarding `Nc1ncnc2c1ncn2[C@@H](C=O)O[C@@H](C=O)COP(=O)(O)OP(=O)(O)OP(=O)(O)O` [OxATP, oxidized ATP], in the assay on spinal cord injury [3], the “BBB score difference versus vehicle, first week of recovery” value is given as 2-4 points and the “functional recovery (BBB) versus vehicle-treated controls” value is recorded as “significant improved recovery”. For the same compound, the “number of TUNEL positive cells surrounding the lesion versus vehicle controls” value with spinal cord injury [4] is on record as “highly significant reduction”. In addition, the “effect on BzATP-induced increase” value at P2X7 receptors [2] is “prevented BzATP-induced increase in spike rate”. Moreover, the “effect on agonist-increased spiking activity” value at P2X7 receptors [2] (pretreatment, OxATP 300 μM, ATP or BzATP 100 μM) was “attenuated”.
As for `Nc1ncnc2c1ncn2[C@@H]1O[C@H](COP(=O)(O)CP(=O)(O)OP(=O)(O)O)[C@@H](O)[C@H]1O` [αβATP], the “apoptosis (TUNEL-positive cells)” value with non-injured spinal cord was “not associated with significant injury”.
In the case of BzATP, on P2X7 receptors [1], the “cytosolic calcium concentration (fluo-4 emission) during bath application” value was “sustained increase in cytosolic calcium concentration”. The “calcium elevation after washout” value on P2X7 receptors [1] (20 min exposure followed by 20 min washout) is “failed to recover after washout”. The “spiking (action potential firing) of spinal cord neurons” value on P2X7 receptors [2] is “increase spiking rate; also recorded: induced high frequency spiking”. Also, on P2X7 receptors [2] (n=5-9), the “spiking rate versus BzATP dose” value was “increases in a dose-dependent manner”. On P2X7 receptors [2] (read-out: kd (affinity, spiking response), spinal cord neurons), the Kd (usually the free concentration of one partner at which half of the binding sites on the other are occupied at equilibrium, for simple one-to-one binding) amounted to 23.8 µM. The “apoptosis (TUNEL-positive cells)” value in the assay with non-injured spinal cord is “induced apoptosis with a potency equivalent to ATP”.
On to NBQX, for which the “effect on BzATP-induced increase” value on P2X7 receptors [2] was “no significant effect”.
